The target of one assay is T1, cell-surface VLA-4 (α4β1 integrin) on Ramos cells binding to immobilized VCAM-1 (Homo sapiens, UniProt P05556+P13612).
T1 construct: Ramos cells bearing cell-surface VLA-4; endogenous in cells; host or cells: Ramos cells (VLA-4); VCAM-1 purified from CHO cell culture media
T1 sequence (P13612 34-1032): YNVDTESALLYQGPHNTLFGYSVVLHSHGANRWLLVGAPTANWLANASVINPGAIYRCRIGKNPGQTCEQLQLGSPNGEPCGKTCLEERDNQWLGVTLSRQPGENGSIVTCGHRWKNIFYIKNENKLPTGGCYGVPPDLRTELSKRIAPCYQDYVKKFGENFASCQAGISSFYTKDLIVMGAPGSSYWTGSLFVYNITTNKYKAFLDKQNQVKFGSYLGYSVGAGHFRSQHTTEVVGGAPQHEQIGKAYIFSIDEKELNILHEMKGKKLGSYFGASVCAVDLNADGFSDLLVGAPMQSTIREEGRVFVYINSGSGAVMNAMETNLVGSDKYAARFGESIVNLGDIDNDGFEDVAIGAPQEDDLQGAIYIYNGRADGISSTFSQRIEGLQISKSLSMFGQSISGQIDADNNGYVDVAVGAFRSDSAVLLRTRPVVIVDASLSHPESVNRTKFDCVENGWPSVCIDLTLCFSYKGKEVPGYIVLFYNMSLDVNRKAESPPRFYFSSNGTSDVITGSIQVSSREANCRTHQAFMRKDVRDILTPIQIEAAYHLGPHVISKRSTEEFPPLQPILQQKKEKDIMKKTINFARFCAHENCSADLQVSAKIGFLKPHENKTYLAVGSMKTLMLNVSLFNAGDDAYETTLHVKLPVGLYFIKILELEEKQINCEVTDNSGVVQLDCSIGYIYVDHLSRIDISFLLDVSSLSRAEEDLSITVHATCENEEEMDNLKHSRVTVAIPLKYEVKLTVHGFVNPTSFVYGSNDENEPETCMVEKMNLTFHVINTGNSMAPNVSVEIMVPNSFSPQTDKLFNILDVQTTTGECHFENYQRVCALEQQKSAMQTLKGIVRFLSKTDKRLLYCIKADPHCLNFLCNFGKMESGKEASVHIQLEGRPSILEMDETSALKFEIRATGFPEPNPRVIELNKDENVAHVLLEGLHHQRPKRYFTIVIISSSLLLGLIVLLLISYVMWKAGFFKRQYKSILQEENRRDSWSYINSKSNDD
T1 sequence (P05556 21-798): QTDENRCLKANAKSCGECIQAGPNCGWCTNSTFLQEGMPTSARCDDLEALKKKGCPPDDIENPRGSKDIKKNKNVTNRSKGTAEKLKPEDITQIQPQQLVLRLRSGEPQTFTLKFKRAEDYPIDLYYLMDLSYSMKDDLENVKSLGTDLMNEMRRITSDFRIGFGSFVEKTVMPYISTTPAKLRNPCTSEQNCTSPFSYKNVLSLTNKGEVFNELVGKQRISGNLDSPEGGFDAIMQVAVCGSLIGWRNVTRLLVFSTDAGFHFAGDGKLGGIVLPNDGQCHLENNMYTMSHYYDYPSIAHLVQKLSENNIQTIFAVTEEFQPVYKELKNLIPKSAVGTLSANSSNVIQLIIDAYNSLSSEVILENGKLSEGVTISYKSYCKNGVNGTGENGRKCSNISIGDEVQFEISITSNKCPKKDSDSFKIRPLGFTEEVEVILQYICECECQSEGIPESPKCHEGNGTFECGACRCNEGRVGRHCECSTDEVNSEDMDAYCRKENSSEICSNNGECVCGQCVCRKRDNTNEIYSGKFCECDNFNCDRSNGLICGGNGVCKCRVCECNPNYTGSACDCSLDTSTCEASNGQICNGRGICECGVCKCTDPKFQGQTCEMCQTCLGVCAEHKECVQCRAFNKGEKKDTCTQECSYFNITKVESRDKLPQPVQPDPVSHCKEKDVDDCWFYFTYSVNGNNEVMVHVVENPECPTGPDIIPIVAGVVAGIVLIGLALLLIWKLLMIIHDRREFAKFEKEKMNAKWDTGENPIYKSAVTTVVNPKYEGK
The assay is described as follows: Ramos (VLA-4)/VCAM-1 Cell-Based Screening Assay (cell adhesion). The following applies: Calcein-AM labeled Ramos cells, VCAM-1 coated plates, 45 min at room temperature; read-out: IC50 in Ramos Cell Based Assay. The source says: Calcein-AM was purchased from Molecular Probes Inc.
VLA-4 (α4β1 integrin) antagonist activity, defined as ability to compete with cell-surface VLA-4 for binding to immobilized VCAM-1, was quantitated using a Ramos-VCAM-1 cell adhesion assay. Ramos cells bearing cell-surface VLA-4, were labeled with a fluorescent dye (Calcein-AM) and allowed to bind VCAM-1 in the presence or absence of test compounds.
Initially, this entailed coating 96 well plates (Nunc Maxisorp) with recombinant human VCAM-1 (100 ng in 100 μl PBS), sealing each plate and allowing the plates to stand at 4° C for Å18 hr. The VCAM-coated plates were subsequently washed twice with 0.05% Tween-20 in PBS, and then blocked for 1hr (room temperature) with 200 μl of Blocking Buffer (1% BSA/0.02% thimerosal) to reduce non-specific binding. Following the incubation with Blocking Buffer, plates were inverted, blotted and the remaining buffer aspirated. Each plate was then washed with 300 μl PBS, inverted and the remaining PBS aspirated.
Test compounds were dissolved in 100% DMSO and then diluted 1:25 in VCAM Cell Adhesion Assay Buffer (4 mM CaCl2, 4 mM MgCl2 in 50 mM TRIS-HCl, pH 7.5) (final DMSO=4%). […] 100 μl/well of each dilution was added to the VCAM-coated plates, followed by 100 μl of Ramos cells (200,000 cells/well in 1% BSA/PBS). […] Plates were inverted to remove non-adherent cells, blotted and 300 μl/well PBS added. Plates were again inverted, blotted and the remaining buffer gently aspirated. 100 μl Lysis Buffer (0.1% SDS in 50 mM TRIS-HCl, pH 8.5) was added to each well and agitated for 2 min on a rotary shaking platform.
For the molecule `CS(=O)(=O)CCCCC1(C(=O)N[C@@H](Cc2ccc(NC(=O)c3c(Cl)cccc3Cl)cc2)C(=O)O)CCCC1` [Example 263], the IC50 was 5 nM.

For the molecule `CC(=O)NCCC1(C(=O)N[C@@H](Cc2ccc(N3C(=O)[C@@H](C)N(C(C)=O)C3c3ccc(Cl)cc3)cc2)C(=O)O)CCCC1` (mixture of isomers) [Example 350], the IC50 is 13 nM.

Take `CSCCCCC1(C(=O)N[C@@H](Cc2ccc(NC(=O)c3c(Cl)cccc3Cl)cc2)C(=O)O)CCCC1` [Example 260]: the half-inhibitory concentration (IC50) is 130 nM.

Take `CCCC(=O)N1C(c2ccccc2)N(c2ccc(C[C@H](NC(=O)C3(CCNC(C)=O)CCCC3)C(=O)O)cc2)C(=O)[C@H]1C` (single isomer, unassigned) [Example 344]: the 50% inhibitory concentration (IC50) is 19 nM.

Take `COc1ccc(C[C@@H]2C(=O)N(c3ccc(C[C@H](NC(=O)C4(CCNC(C)=O)CCCC4)C(=O)O)cc3)C(CCc3ccccc3)N2C(C)=O)cc1` (single isomer, unassigned) [Example 293]: the IC50 is 40 nM.

For the molecule `[N-]=[N+]=NCCCCC1(C(=O)N[C@@H](Cc2ccc(NC(=O)c3c(Cl)cccc3Cl)cc2)C(=O)O)CCCC1` [Example 261], the IC50 is 184 nM.

As to `CC(=O)NCCCC1(C(=O)N[C@@H](Cc2ccc(NC(=O)c3c(Cl)cccc3Cl)cc2)C(=O)O)CCCC1` [Example 276, N-[[1-(3-(Acetylamino)propyl]cyclopenyl]carbonyl]-4-[[(2,6-dichlorophenyl)carbonyl]amino]-L-phenylalanine], the IC50 is 22 nM.

For the molecule `COc1ccc(C[C@@H]2C(=O)N(c3ccc(C[C@H](NC(=O)C4(CCNC(C)=O)CCCC4)C(=O)O)cc3)C(c3ccc(Cl)cc3)N2C(C)=O)cc1` (single isomer, unassigned) [Example 286], the half-inhibitory concentration (IC50) was 24 nM.

`O=C(NCCC1(C(=O)N[C@@H](Cc2ccc(NC(=O)c3c(Cl)cccc3Cl)cc2)C(=O)O)CCCC1)NCc1ccccc1` [Example 191]: the IC50 was 322 nM.

In the case of `CCCC(=O)N1C(c2ccccc2)N(c2ccc(C[C@H](NC(=O)C3(CCNC(C)=O)CCCC3)C(=O)O)cc2)C(=O)[C@H]1Cc1ccc(OC)cc1` (single isomer, unassigned) [Example 280], the IC50 is 4.2 nM.

With `COc1ccc(C[C@@H]2C(=O)N(c3ccc(C[C@H](NC(=O)C4(CCNC(C)=O)CCCC4)C(=O)O)cc3)C(c3ccccc3)N2C(=O)COc2ccccc2)cc1` (single isomer, unassigned) [Example 284], the IC50 was 2.9 nM.

In the case of `COC(=O)NC(=O)NCCC1(C(=O)N[C@@H](Cc2ccc(NC(=O)c3c(Cl)cccc3Cl)cc2)C(=O)O)CCCC1` [Example 189], the IC50 was 130 nM.

Regarding `COc1ccc(C[C@@H]2C(=O)N(c3ccc(C[C@H](NC(=O)C4(CCNC(C)=O)CCCC4)C(=O)O)cc3)C(c3ccccc3)N2C(C)=O)cc1` (single isomer, unassigned) [Example 278], the 50% inhibitory concentration (IC50) was 2 nM.

With `CC(=O)NCCC1(C(=O)N[C@@H](Cc2ccc(N3C(=O)[C@@H](Cc4cccnc4)N(C(C)=O)C3c3ccccc3)cc2)C(=O)O)CCCC1` (single isomer, unassigned) [Example 299], the IC50 was 1.7 nM.

As for `CCCC(=O)N1C(c2ccc(Cl)cc2)N(c2ccc(C[C@H](NC(=O)C3(CCNC(C)=O)CCCC3)C(=O)O)cc2)C(=O)[C@H]1C` (single isomer, unassigned) [Example 351], the IC50 is 13 nM.

With `CC(=O)NCCC1(C(=O)N[C@@H](Cc2ccc(N3C(=O)[C@@H](Cc4ccccc4)N(C(C)=O)C3c3ccccc3)cc2)C(=O)O)CCCC1` (single isomer, unassigned) [Example 311], the IC50 was 3 nM.

As to `O=C(NCCC1(C(=O)N[C@@H](Cc2ccc(NC(=O)c3c(Cl)cccc3Cl)cc2)C(=O)O)CCCC1)Nc1ccccc1[N+](=O)[O-]` [Example 190], the IC50 was 650 nM.

For `COCCC1(C(=O)N[C@@H](Cc2ccc(NC(=O)c3c(Cl)cccc3Cl)cc2)C(=O)O)CCCC1` [Example 59], the IC50 was 13.5 nM.

Consider `CCCC(=O)N1C(c2ccc(Cl)cc2)N(c2ccc(C[C@H](NC(=O)C3(CCNC(C)=O)CCCC3)C(=O)O)cc2)C(=O)[C@H]1Cc1ccccc1` (single isomer, unassigned) [Example 322], for which the IC50 was 5 nM.

The same assay, now with this note: Conc. 10 nM; Ramos cell adhesion to VCAM-1.
For `CCCC(=O)N1C(Cc2cccnc2)C(=O)N(c2ccc(CC(NC(=O)C3(CCNC(C)=O)CCCC3)C(=O)O)cc2)C1c1ccc(Cl)cc1` (stereo not shown) [Example 304], testing at 0.01 µM gave an inhibition of 35%.

On to `COc1ccc(CC2C(=O)N(c3ccc(CC(NC(=O)C4(CCNC(C)=O)CCCC4)C(=O)O)cc3)C(c3ccc(Cl)cc3)N2C(=O)COc2ccccc2)cc1` (single isomer, unassigned) [Example 291], for which the inhibition at 0.01 µM was found to be 48%.

`CCCC(=O)N1C(Cc2ccccc2)C(=O)N(c2ccc(CC(NC(=O)C3(CCNC(C)=O)CCCC3)C(=O)O)cc2)C1c1ccc(Cl)cc1` (single isomer, unassigned) [Example 321] yielded an inhibition at 0.01 µM of 59%.

With `CC(=O)NCCC1(C(=O)NC(Cc2ccc(N3C(=O)C(C)N(C(C)=O)C3c3ccccc3)cc2)C(=O)O)CCCC1` (single isomer, unassigned) [Example 342], the inhibition at 0.01 µM is 24%.

`CCCC(=O)N1C(Cc2cccnc2)C(=O)N(c2ccc(CC(NC(=O)C3(CCNC(C)=O)CCCC3)C(=O)O)cc2)C1c1ccccc1` (stereo not shown) [Example 300] yielded an inhibition at 0.01 µM of 32%.

The molecule `CCCC(=O)N1C(Cc2ccccc2)C(=O)N(c2ccc(CC(NC(=O)C3(CCNC(C)=O)CCCC3)C(=O)O)cc2)C1c1ccccc1` (single isomer, unassigned) [Example 313] came in with an inhibition at 0.01 µM of 68%.

With `CC(=O)NCCC1(C(=O)NC(Cc2ccc(N3C(=O)C(Cc4cccnc4)N(C(C)=O)C3c3ccc(Cl)cc3)cc2)C(=O)O)CCCC1` (stereo not shown) [Example 303], the inhibition at 0.01 µM came to 70%.

In turn, `CC(=O)NCCC1(C(=O)NC(Cc2ccc(N3C(=O)C(Cc4ccccc4)N(C(C)=O)C3c3ccc(Cl)cc3)cc2)C(=O)O)CCCC1` (single isomer, unassigned) [Example 319] registered an inhibition at 0.01 µM of 68%.

As for `CC(=O)NCCC1(C(=O)NC(Cc2ccc(N3C(=O)C(Cc4ccccc4)N(C(=O)COc4ccccc4)C3c3ccccc3)cc2)C(=O)O)CCCC1` (single isomer, unassigned) [Example 317], the inhibition at 0.01 µM was found to be 17%.

Molecule `CC(=O)NCCC1(C(=O)NC(Cc2ccc(N3C(=O)C(C)N(C(=O)COc4ccccc4)C3c3ccccc3)cc2)C(=O)O)CCCC1` (single isomer, unassigned) [Example 349] displayed an inhibition at 0.01 µM of 58%.

`CCCC(=O)N1C(Cc2ccc(OC)cc2)C(=O)N(c2ccc(CC(NC(=O)C3(CCNC(C)=O)CCCC3)C(=O)O)cc2)C1c1ccc(Cl)cc1` (single isomer, unassigned) [Example 288] registered an inhibition at 0.01 µM of 92%.

Staying with this assay, now noted: IC50 in Ramos Cell Based Assay (nM), Calcein-AM labeled Ramos cells, VCAM-1 coated plates, 45 min at room temperature.
Turning to `CSCCCCC1(C(=O)N[C@@H](Cc2ccc(NC(=O)c3c(Cl)cccc3Cl)cc2)C(=O)O)CCCC1` [Example 260], the IC50 is 94 nM.

As to `N#CCCCCC1(C(=O)N[C@@H](Cc2ccc(NC(=O)c3c(Cl)cccc3Cl)cc2)C(=O)O)CCCC1` [Example 262], the IC50 is 39 nM.

`CC(C)(C)C(=O)NCCC1(C(=O)N[C@@H](Cc2ccc(NC(=O)c3c(Cl)cccc3Cl)cc2)C(=O)O)CCCC1` [Example 156, 4-[[(2,6-dichlorophenyl)carbonyl]amino]-N-[[1-[2-[[N-(1,1-dimethylethyl)carbonyl]amino]ethyl]cyclopentyl]carbonyl]-L-phenylalanine]: the IC50 is 28 nM.

`NC(=O)NCCC1(C(=O)N[C@@H](Cc2ccc(NC(=O)c3c(Cl)cccc3Cl)cc2)C(=O)O)CCCC1` [Example 188]: the IC50 is 36 nM.

The IC50 is the concentration at which inhibition is half-maximal. The term inhibition denotes the change of the read-out against control, counted positive when it falls. The low end stands for a response near the control, the high end for a response far below the control.

The record behind these values is patent US6455550B1, “N-alkanoylphenylalanine derivatives” (Hoffmann-La Roche Inc., priority 1997, dated 2002).
